Data from ChEMBL document CHEMBL4483862, “Open-source discovery of chemical leads for next-generation chemoprotective antimalarials” (2018).

System: Plasmodium berghei
Experiment: Luciferase/luciferin-expressing antifolate-resistant parasites were used to infect a culture of HepG2 cells that were pre-incubated with compounds. Infected hepatocytes emit light due to the luciferase reaction. Assay results are presented as the percent inhibition of light emission compared to control. […]
Assay type: functional
Conditions: sporozoite; for IC90: read-out: LUCIFERASE INFECTION ASSAY - IC90

Row | Compound | IC90 | further results
1 | Oc1ccc(/C=C/c2ccc3cccc(O)c3n2)cc1Br | 7.7 µM | IC50 (PBLUC_HILL_SLOPE 43.7, PBLUC_R_SQUARED 0.404, read-out: LUCIFERASE INFECTION ASSAY - IC50): 7.32 µM
2 | COc1cc(CNC2CCCC2)c(Br)cc1OC1CCCC1 | > 8.15 µM | IC50 (PBLUC_HILL_SLOPE 45, PBLUC_R_SQUARED 0.216, read-out: LUCIFERASE INFECTION ASSAY - IC50): 8.1 µM
3 | NC(Cc1ccc(C(F)(F)F)cc1)c1csc(NC(=O)Nc2ccccc2Cc2ccccc2)n1 (stereo not given) | 6.33 µM | IC50 (PBLUC_HILL_SLOPE 25.9, PBLUC_R_SQUARED 0.261, read-out: LUCIFERASE INFECTION ASSAY - IC50): 5.82 µM
4 | Nc1ncc(-c2ccc(-c3ccccc3)cc2F)cc1-c1ccccc1F | > 9.21 µM | IC50 (PBLUC_HILL_SLOPE 34.9, PBLUC_R_SQUARED 0.254, read-out: LUCIFERASE INFECTION ASSAY - IC50): 8.92 µM
5 | COc1ccc(-c2cc(-c3ccc(O)cc3)cnc2N)cn1 | 10.6 µM | IC50 (PBLUC_HILL_SLOPE 26.5, PBLUC_R_SQUARED 0.457, read-out: LUCIFERASE INFECTION ASSAY - IC50): 9.73 µM
6 | Nc1cc(C(F)(F)F)ccc1Sc1ccccn1 | > 12.2 µM | IC50 (PBLUC_HILL_SLOPE 27.6, PBLUC_R_SQUARED 0.179, read-out: LUCIFERASE INFECTION ASSAY - IC50): 11.8 µM
7 | Cc1c(NC(=O)c2c(F)cccc2F)cc2c(c1[N+](=O)[O-])C(C)(C)CC2(C)C | > 8.5 µM | IC50 (PBLUC_HILL_SLOPE 39, PBLUC_R_SQUARED 0.724, read-out: LUCIFERASE INFECTION ASSAY - IC50): > 8.5 µM
8 | O=S(=O)(c1ccc(Cl)cc1)c1nc(/C=C/c2ccccc2)oc1NCc1ccco1 | 9.82 µM | IC50 (PBLUC_HILL_SLOPE 32.9, PBLUC_R_SQUARED 0.0875, read-out: LUCIFERASE INFECTION ASSAY - IC50): 9.18 µM
9 | O=C(CO/N=C/c1ccc(OCc2ccccc2)c(OCc2ccccc2)c1)N1CCCCCC1 | > 10 µM | IC50 (PBLUC_HILL_SLOPE 29.4, PBLUC_R_SQUARED 0.303, read-out: LUCIFERASE INFECTION ASSAY - IC50): 9.83 µM
10 | Cn1c(SCc2nc3ccc(Cl)cc3n2CCO)nc2scc(-c3ccc(F)cc3)c2c1=O | 3.59 µM | IC50 (PBLUC_HILL_SLOPE 30.6, PBLUC_R_SQUARED 0.504, read-out: LUCIFERASE INFECTION ASSAY - IC50): 3.34 µM
11 | Cc1ccc(-c2nc(CN3C(=O)NC4(CCCCCC4)C3=O)cs2)cc1 | > 10 µM | IC50 (PBLUC_HILL_SLOPE 31.5, PBLUC_R_SQUARED 0.344, read-out: LUCIFERASE INFECTION ASSAY - IC50): 9.91 µM
12 | CCCCN1C(=O)C(=O)N(CC(=O)Nc2sc(Cc3ccc4c(c3)OCO4)c(C)c2C(=O)OCC)C1=O | 0.0425 µM | IC50 (PBLUC_HILL_SLOPE 37.8, PBLUC_R_SQUARED 0.839, read-out: LUCIFERASE INFECTION ASSAY - IC50): 0.0401 µM
13 | CC(C)NC(=O)c1c(NC(=O)c2cccc(Cl)c2Cl)nc2ccccn12 | > 8.43 µM | IC50 (PBLUC_HILL_SLOPE 29.4, PBLUC_R_SQUARED 0.349, read-out: LUCIFERASE INFECTION ASSAY - IC50): 7.83 µM
14 | CCCn1c(NC(=O)C2CCCN2C(=O)C23CC4CC(CC(C4)C2)C3)nc2ccccc21 (stereo not given) | 9.69 µM | IC50 (PBLUC_HILL_SLOPE 41.1, PBLUC_R_SQUARED 0.0887, read-out: LUCIFERASE INFECTION ASSAY - IC50): 9.19 µM
15 | CN1CCN(c2nc(-c3c[nH]c4ccccc34)c(-c3ccccc3)s2)CC1 | > 10 µM | IC50 (PBLUC_HILL_SLOPE 45.6, PBLUC_R_SQUARED 0.243, read-out: LUCIFERASE INFECTION ASSAY - IC50): 9.92 µM
16 | COc1cccc(-c2cc3c(Nc4ccccc4)nccc3[nH]2)c1 | 3.51 µM | IC50 (PBLUC_HILL_SLOPE 41.1, PBLUC_R_SQUARED 0.519, read-out: LUCIFERASE INFECTION ASSAY - IC50): 3.33 µM
17 | COc1ccccc1C(=O)Nc1ccc2c(c1)nc(CCN1CCCC1)n2C | > 8.72 µM | IC50 (PBLUC_HILL_SLOPE 41.2, PBLUC_R_SQUARED 0.16, read-out: LUCIFERASE INFECTION ASSAY - IC50): 8.38 µM
18 | CC(=O)Nc1cccc2c1CCN(c1ncnc3sccc13)C2 | 3.46 µM | IC50 (PBLUC_HILL_SLOPE 34.6, PBLUC_R_SQUARED 0.49, read-out: LUCIFERASE INFECTION ASSAY - IC50): 3.25 µM
19 | OC[C@H]1O[C@@H](c2nc3cc(-c4nc(-c5ccccc5F)no4)ccc3[nH]2)C[C@@H]1O | 2.9 µM | IC50 (PBLUC_HILL_SLOPE 37.1, PBLUC_R_SQUARED 0.287, read-out: LUCIFERASE INFECTION ASSAY - IC50): 2.73 µM
20 | Cc1nc(CSCC(=O)Nc2nc(-c3ccccn3)cs2)cs1 | > 10 µM | IC50 (PBLUC_HILL_SLOPE 39.1, PBLUC_R_SQUARED 0.364, read-out: LUCIFERASE INFECTION ASSAY - IC50): 9.84 µM

Row | Compound | IC90 | further results
21 | CCc1c(C)[nH]c2cc(-c3ccc(OC)cc3)nn2c1=O | 3.98 µM | IC50 (PBLUC_HILL_SLOPE 29.9, PBLUC_R_SQUARED 0.167, read-out: LUCIFERASE INFECTION ASSAY - IC50): 3.7 µM
22 | CN(C)S(=O)(=O)c1ccc(CNc2ccnc3cc(Cl)ccc23)s1 | 3.6 µM | IC50 (PBLUC_HILL_SLOPE 38.6, PBLUC_R_SQUARED 0.0785, read-out: LUCIFERASE INFECTION ASSAY - IC50): 3.4 µM
23 | CC(C)(C)NC(=S)Nc1cc(C(F)(F)F)cc(C(F)(F)F)c1 | > 9.58 µM | IC50 (PBLUC_HILL_SLOPE 27.4, PBLUC_R_SQUARED 0.229, read-out: LUCIFERASE INFECTION ASSAY - IC50): 9.58 µM
24 | Cc1nc(C(=O)N2CCc3c(c(C(=O)NCc4ccccn4)nn3CCc3ccccc3)C2)cs1 | 2.47 µM | IC50 (PBLUC_HILL_SLOPE 26.7, PBLUC_R_SQUARED 0.676, read-out: LUCIFERASE INFECTION ASSAY - IC50): 2.27 µM
25 | Cc1cc(-c2cc(C(=O)N3CCCN(C)c4nc5ccccc5nc43)c3c(C)noc3n2)c(C)s1 | 0.385 µM | IC50 (PBLUC_HILL_SLOPE 42.2, PBLUC_R_SQUARED 0.606, read-out: LUCIFERASE INFECTION ASSAY - IC50): 0.366 µM
26 | Cc1nn(C)c(NC(=O)c2ccc(Cl)cc2)c1Br | > 10 µM | IC50 (PBLUC_HILL_SLOPE 41, PBLUC_R_SQUARED 0.305, read-out: LUCIFERASE INFECTION ASSAY - IC50): > 10 µM
27 | Cc1cc(C)c(NC(=NC2CCCCC2)Nc2c(C)cc(C)cc2C)c(C)c1 | 9.33 µM | IC50 (PBLUC_HILL_SLOPE 26.1, PBLUC_R_SQUARED 0.486, read-out: LUCIFERASE INFECTION ASSAY - IC50): 8.58 µM
28 | COc1ccc(Cl)cc1C(=O)NNC(=O)CSc1nccn1-c1ccc(C)c(C)c1 | 6.58 µM | IC50 (PBLUC_HILL_SLOPE 46.1, PBLUC_R_SQUARED 0.54, read-out: LUCIFERASE INFECTION ASSAY - IC50): 6.27 µM
29 | NC(CCc1ccccc1)c1csc(NC(=O)Nc2ccccc2)n1 (stereo not given) | > 9.36 µM | IC50 (PBLUC_HILL_SLOPE 42.7, PBLUC_R_SQUARED 0.194, read-out: LUCIFERASE INFECTION ASSAY - IC50): 9.14 µM
30 | Cc1ccn2cc(C(=O)Nc3nc(C(C)C)cs3)nc2c1 | > 10 µM | IC50 (PBLUC_HILL_SLOPE 42, PBLUC_R_SQUARED 0.63, read-out: LUCIFERASE INFECTION ASSAY - IC50): 9.53 µM
31 | CCCNC(=O)c1c(NC(=O)c2ccc(OCC)cc2)nc2ccccn12 | 8.98 µM | IC50 (PBLUC_HILL_SLOPE 45.3, PBLUC_R_SQUARED 0.241, read-out: LUCIFERASE INFECTION ASSAY - IC50): 8.55 µM
32 | Cc1cc(NC(=O)CNC(c2ccc(C3CCCCC3)cc2)C(C)C)n(C2CCS(=O)(=O)C2)n1 (stereo not given) | 9.9 µM | IC50 (PBLUC_HILL_SLOPE 35.5, PBLUC_R_SQUARED 0.454, read-out: LUCIFERASE INFECTION ASSAY - IC50): 9.31 µM
33 | COCCn1c(C(=O)OC)c(NC(=O)c2ccco2)c2cc(NCC(C)c3ccccc3)cnc21 (stereo not given) | > 6.93 µM | IC50 (PBLUC_HILL_SLOPE 27.9, PBLUC_R_SQUARED 0.298, read-out: LUCIFERASE INFECTION ASSAY - IC50): 6.65 µM
34 | COc1ccc(-c2cnc3cnc(-c4ccc(N)nc4)cn23)cn1 | 9.27 µM | IC50 (PBLUC_HILL_SLOPE 29.9, PBLUC_R_SQUARED 0.596, read-out: LUCIFERASE INFECTION ASSAY - IC50): 8.62 µM
35 | CC(C)N(c1ccccc1)c1ccc(NC(=O)Nc2ccccc2)cc1 | 3.58 µM | IC50 (PBLUC_HILL_SLOPE 27.4, PBLUC_R_SQUARED 0.0577, read-out: LUCIFERASE INFECTION ASSAY - IC50): 3.31 µM
36 | Cc1cccc(C(=O)OC(C)C(=O)Nc2sccc2C#N)c1N (stereo not given) | > 10 µM | IC50 (PBLUC_HILL_SLOPE 38.2, PBLUC_R_SQUARED 0.283, read-out: LUCIFERASE INFECTION ASSAY - IC50): 9.97 µM
37 | CN1N=C2c3ccccc3CCCC2C1c1ccc(C(C)(C)C)cc1 (stereo not given) | 3.51 µM | IC50 (PBLUC_HILL_SLOPE 38, PBLUC_R_SQUARED 0.372, read-out: LUCIFERASE INFECTION ASSAY - IC50): 3.31 µM
38 | O=C(C1CCCN(c2cnccn2)C1)N1CCN(C(c2ccc(F)cc2)c2ccc(F)cc2)CC1 (stereo not given) | > 10 µM | IC50 (PBLUC_HILL_SLOPE 27.2, PBLUC_R_SQUARED 0.0353, read-out: LUCIFERASE INFECTION ASSAY - IC50): 9.76 µM
39 | O=C(Nc1ccc(S(=O)(=O)NCCCN2CCOCC2)cc1)c1csc(-c2ccsc2)n1 | > 10 µM | IC50 (PBLUC_HILL_SLOPE 27, PBLUC_R_SQUARED 0.0565, read-out: LUCIFERASE INFECTION ASSAY - IC50): 9.66 µM
40 | c1ccc(-c2cc(-c3ccc(NC4=NCCCS4)cc3)nc3ccccc23)cc1 | 9.46 µM | IC50 (PBLUC_HILL_SLOPE 28.5, PBLUC_R_SQUARED 0.262, read-out: LUCIFERASE INFECTION ASSAY - IC50): 8.76 µM
